This note sets out measurements from paper PMC6882824, “Engineering of chimeric peptides as antagonists for the G protein-coupled receptor, RXFP4” (Scientific Reports, 2019).

Usually Emax stands for the maximal effect, on the per cent scale that the assay sets.

For assay [1], the target named is T1, RXFP3 (Homo sapiens, UniProt Q9NSD7).
T1 construct: expressed in transfected cells; host or cells: CHO-K1 (ATCC), stably transfected
T1 sequence (Q9NSD7 1-469): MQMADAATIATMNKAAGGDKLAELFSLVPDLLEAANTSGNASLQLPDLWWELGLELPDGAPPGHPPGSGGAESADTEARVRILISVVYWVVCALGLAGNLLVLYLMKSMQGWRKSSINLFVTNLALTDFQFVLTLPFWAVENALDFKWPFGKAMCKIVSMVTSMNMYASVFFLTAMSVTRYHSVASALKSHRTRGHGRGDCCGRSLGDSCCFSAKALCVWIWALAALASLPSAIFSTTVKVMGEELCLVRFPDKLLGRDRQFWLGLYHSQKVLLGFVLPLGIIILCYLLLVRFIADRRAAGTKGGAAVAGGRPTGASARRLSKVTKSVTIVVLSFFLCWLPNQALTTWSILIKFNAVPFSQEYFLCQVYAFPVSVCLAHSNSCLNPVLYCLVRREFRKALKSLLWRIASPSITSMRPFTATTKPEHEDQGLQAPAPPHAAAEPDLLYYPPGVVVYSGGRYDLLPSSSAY
Briefly: Competition binding in CHO-K1-RXFP3 cells (Eu-H3B1-22R). The following applies: CHO-K1 cells stably transfected with RXFP3, competition with 5 nM Eu-H3B1-22R. As to the method: (§1) Chinese hamster ovary CHO-K1 cells (sourced from American Type Culture Collection (ATCC), Maryland, USA) stably transfected with RXFP3[33] or RXFP4[9] were plated out onto precoated poly-L-lysine 96-well view plates at a density of 50 000 cells per well. Medium was aspirated off and the cells were washed with phosphate-buffered saline (PBS) before competition binding assays were performed with 5 nM Eu-H3B1–22R[34] (RXFP3 ligand) or 5 nM Eu-DTPA-mINSL5[9] (RXFP4 ligand) as previously described. Competition binding curves were performed in triplicate and each experiment was performed independently at least three times. Fluorescent measurements were carried out on a BMG POLARstar plate reader (BMG Labtech, Melbourne, Australia. Pooled data are presented as mean ± S.E of specific binding and are fitted using one-site binding curve in GraphPad Prism version 8 (GraphPad Inc., San Diego, USA). Statistical analyses were conducted using one-way analysis of variance with uncorrected Fisher’s least significant difference (LSD) post-hoc analysis in GraphPad Prism version 8.

For assay [2], the target named is T1, RXFP3. The assay is described as follows: cAMP agonist assay (inhibition of forskolin-induced cAMP, pCRE β-galactosidase reporter) in CHO-K1-RXFP3 cells. Format: cell-based. The note with it: SEM; read-out: RXFP3 Activity pEC50 (converted). The protocol:
(§2) The peptides were tested for their ability to inhibit forskolin induced cAMP activity in CHO-K1-RXFP3 or CHO-K1-RXFP4 cells transfected with a pCRE (cAMP Response Element) β-galactosidase reporter plasmid as previously described[9],[34]. For agonist assays cells were stimulated with forskolin (5 µM for RXFP3, 1 µM for RXFP4) plus or minus increasing concentrations of each peptide for 6 hours. For antagonist assays cells were stimulated with forskolin as in agonist assays plus increasing concentrations of each peptide for 10 minutes followed by stimulation with agonist at an ~EC80 concentration for a further 6 hours (10 nM Analogue 2 for RXFP3 and 16.6 nM Analogue 13 for RXFP4). Each peptide was tested in triplicate and each experiment was performed independently at least three times. Agonist data was expressed as the % Forskolin activity whereby 100% was defined as Forskolin alone and 0% as maximum agonist stimulation (1 µM Analogue 2 for RXFP3 and 1 µM Analogue 13 for RXFP4). […] Data were analysed and plotted using GraphPad PRISM 8 and are expressed as the mean ± SEM of the pooled data. Statistical analysis was conducted using one-way ANOVA with Uncorrected Fisher’s LSD post-hoc analysis in GraphPad Prism version 8.

The target in assay [3] is T2, RXFP4 (Homo sapiens, UniProt Q8TDU9). Briefly: Competition binding in CHO-K1-RXFP4 cells (Eu-DTPA-mINSL5). Also on record: expressed in transfected cells; host or cells: CHO-K1 (ATCC), stably transfected. The note with it: CHO-K1 cells stably transfected with RXFP4, competition with 5 nM Eu-DTPA-mINSL5. The protocol: as §1
T2 sequence (Q8TDU9 whole entry): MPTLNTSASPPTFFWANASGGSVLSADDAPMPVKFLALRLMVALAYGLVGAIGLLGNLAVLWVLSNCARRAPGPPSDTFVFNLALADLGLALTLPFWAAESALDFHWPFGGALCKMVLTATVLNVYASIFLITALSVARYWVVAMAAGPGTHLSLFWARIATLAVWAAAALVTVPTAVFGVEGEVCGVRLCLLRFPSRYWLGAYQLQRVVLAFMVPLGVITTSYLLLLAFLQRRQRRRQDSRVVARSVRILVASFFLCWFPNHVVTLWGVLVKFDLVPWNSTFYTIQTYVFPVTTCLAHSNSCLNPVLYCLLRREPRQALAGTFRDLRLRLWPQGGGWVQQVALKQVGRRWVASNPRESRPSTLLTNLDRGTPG
Assay [4] deals with T2, RXFP4. The assay is described as follows: cAMP agonist assay (inhibition of forskolin-induced cAMP, pCRE β-galactosidase reporter) in CHO-K1-RXFP4 cells. The note with it: for RXFP4 Activity pEC50: CHO-K1-RXFP4 cells, inhibition of 1 µM forskolin-induced cAMP, 6 hours, mean ± SEM, n in cell. Also on record: expressed in transfected cells; host or cells: CHO-K1 (ATCC), stably transfected. Format: cell-based. The protocol: as §2

Assay [5] deals with T1, RXFP3. The assay is described as follows: cAMP antagonist assay against 10 nM analogue 2 in CHO-K1-RXFP3 cells. Format: cell-based. The note with it: SEM; read-out: RXFP3 Emax (antagonist efficacy). As to the method:
as §2

Assay [6] deals with T2, RXFP4. The assay is described as follows: cAMP antagonist assay against 16.6 nM analogue 13 in CHO-K1-RXFP4 cells. Format: cell-based. The arrangement: expressed in transfected cells; host or cells: CHO-K1 (ATCC), stably transfected. The following applies: SEM; read-out: RXFP4 Emax (antagonist efficacy). The protocol:
as §2

Where two headings read alike, the source gives them in different places. Bridge positions count the residues as written; N and C are the ends. Peptide text beside a SMILES is read from it. I, II: the chains in the order shown.

Consider `CC[C@H](C)[C@@H]1NC(=O)[C@H](Cc2ccccc2)NC(=O)[C@H](CCC(=O)O)NC(=O)[C@H](CCCNC(=N)N)NC(=O)CNC(=O)[C@@H](NC(=O)[C@H](CC(C)C)NC(=O)[C@H](CCCNC(=N)N)NC(=O)[C@@H](NC(=O)CNC(=O)[C@H](Cc2ccc(O)cc2)NC(=O)[C@@H]2CCCN2C(=O)[C@H](C)NC(=O)[C@H](C)NC(=O)[C@@H](N)CCCNC(=N)N)C(C)C)CSSC[C@H](N)C(=O)N[C@@H](CCCCN)C(=O)N[C@@H](Cc2c[nH]c3ccccc23)C(=O)NCC(=O)N[C@@H](CO)C(=O)N[C@@H](C)C(=O)N[C@@H](CCCCN)C(=O)N[C@@H](CO)C(=O)N[C@@H](CCC(=O)O)C(=O)N[C@@H]([C@@H](C)CC)C(=O)N[C@@H](CO)C(=O)N[C@@H](CO)C(=O)N[C@@H](CC(C)C)C(=O)N[C@H](C(=O)O)CSSC[C@@H](C(=O)NCC(=O)NCC(=O)N[C@@H](CO)C(=O)N[C@@H](CCCNC(=N)N)C(=O)N[C@@H](Cc2c[nH]c3ccccc23)C(=O)O)NC(=O)[C@H]([C@@H](C)O)NC(=O)[C@H](Cc2ccccc2)NC(=O)[C@H]([C@@H](C)CC)NC(=O)[C@H](C(C)C)NC(=O)[C@H](C)NC(=O)[C@H](CCCNC(=N)N)NC1=O` [Analogue 2, reference compound], for which the values for the Ki in assay [1] (read-out: RXFP3 Binding Ki) and in assay [3] (read-out: RXFP4 Binding Ki) were 19.1 nM and 79.4 nM, respectively. Besides, the EC50 is 3.72 nM in assay [2] and 19.9 nM in assay [4].
Take `CC[C@H](C)[C@@H]1NC(=O)[C@H](Cc2ccccc2)NC(=O)[C@H](CCC(=O)O)NC(=O)[C@H](CCCNC(=N)N)NC(=O)CNC(=O)[C@@H](NC(=O)[C@H](CC(C)C)NC(=O)[C@H](CCCNC(=N)N)NC(=O)[C@@H](NC(=O)CNC(=O)[C@H](Cc2ccc(O)cc2)NC(=O)[C@@H]2CCCN2C(=O)[C@H](C)NC(=O)[C@H](C)NC(=O)[C@@H](N)CCCNC(=N)N)C(C)C)CSSC[C@H](N)C(=O)N[C@@H]([C@@H](C)O)C(=O)N[C@@H](CC(=O)O)C(=O)NCC(=O)N[C@@H](C)C(=O)N[C@@H](CO)C(=O)N[C@@H](CCSC)C(=O)N[C@@H](CCCCN)C(=O)N[C@@H](CC(=O)O)C(=O)N[C@@H](CC(C)C)C(=O)N[C@@H](CO)C(=O)N[C@@H](C)C(=O)N[C@@H](CC(C)C)C(=O)N[C@H](C(=O)O)CSSC[C@@H](C(=O)N[C@@H](CCCNC(=N)N)C(=O)O)NC(=O)[C@H]([C@@H](C)CC)NC(=O)[C@H](Cc2ccccc2)NC(=O)[C@H]([C@@H](C)CC)NC(=O)[C@H](C(C)C)NC(=O)[C@H](C)NC(=O)[C@H](CCCNC(=N)N)NC1=O` [Analogue 16] (I: H-RAAPYGVRLCGREFIRAVIFICR-OH / II: H-CTDGASMKDLSALC-OH; disulfide I:10-II:1, I:22-II:14; N-terminus assumed): the Emax stood at 55.8 ± 3.4% in assay [5] and 2.1 ± 4.7% in assay [6]. Moreover, the “RXFP4 Activity pEC50” value in assay [4] is listed as “Weak partial agonist (4)”.
Consider `CC[C@H](C)[C@@H]1NC(=O)[C@H](Cc2ccccc2)NC(=O)[C@H]([C@@H](C)CC)NC(=O)[C@H](C(C)C)NC(=O)[C@H]([C@@H](C)O)NC(=O)[C@H](CCCNC(=N)N)NC(=O)[C@H]([C@@H](C)CC)NC(=O)[C@H](Cc2ccccc2)NC(=O)[C@H](CCC(=O)O)NC(=O)[C@H](CC(C)C)NC(=O)CNC(=O)[C@@H](NC(=O)[C@H](CC(C)C)NC(=O)[C@H](CCCNC(=N)N)NC(=O)[C@@H](NC(=O)CNC(=O)[C@H](CCC(=O)O)NC(=O)[C@H](CCCCN)NC(=O)[C@H](C)NC(=O)[C@H](C)NC(=O)[C@@H](N)CCCNC(=N)N)C(C)C)CSSC[C@H](N)C(=O)N[C@@H]([C@@H](C)O)C(=O)N[C@@H](CC(=O)O)C(=O)NCC(=O)N[C@@H](C)C(=O)N[C@@H](CO)C(=O)N[C@@H](CCSC)C(=O)N[C@@H](CCCCN)C(=O)N[C@@H](CC(=O)O)C(=O)N[C@@H](CC(C)C)C(=O)N[C@@H](CO)C(=O)N[C@@H](C)C(=O)N[C@@H](CC(C)C)C(=O)N[C@H](C(=O)O)CSSC[C@@H](C(=O)N[C@@H](CCCNC(=N)N)C(=O)O)NC1=O` [Analogue 20] (I: H-RAAKEGVRLCGLEFIRTVIFICR-OH / II: H-CTDGASMKDLSALC-OH; disulfide I:10-II:1, I:22-II:14; N-terminus assumed), for which the Emax was 19.9 ± 2.3% in assay [5] and 8.1 ± 9.5% in assay [6]. Moreover, in assay [4], the “RXFP4 Activity pEC50” value was “Weak partial agonist (4)”.
`CC[C@H](C)[C@@H]1NC(=O)[C@H](Cc2ccccc2)NC(=O)[C@H](CCC(=O)O)NC(=O)[C@H](CCCNC(=N)N)NC(=O)CNC(=O)[C@@H](NC(=O)[C@H](CC(C)C)NC(=O)[C@H](CCCNC(=N)N)NC(=O)[C@@H](NC(=O)CNC(=O)[C@H](Cc2ccc(O)cc2)NC(=O)[C@@H]2CCCN2C(=O)[C@H](C)NC(=O)[C@H](C)NC(=O)[C@@H](N)CCCNC(=N)N)C(C)C)CSSC[C@@H]2NC(=O)[C@@H](NC(=O)[C@H](CO)NC(=O)[C@H](CO)NC(=O)[C@H](CO)NC(=O)[C@H](CC(C)C)NC(=O)CNC(=O)[C@H](C)NC(=O)[C@H](CC(C)C)NC(=O)[C@@H](NC(=O)[C@@H](N)CC(=O)O)C(C)C)CSSC[C@H](NC(=O)CNC(=O)[C@H](Cc3c[nH]c4ccccc34)NC(=O)[C@H](CCCCN)NC2=O)C(=O)N[C@@H](CO)C(=O)N[C@@H](CCCCN)C(=O)N[C@@H](CO)C(=O)N[C@@H](CCC(=O)O)C(=O)N[C@@H]([C@@H](C)CC)C(=O)N[C@@H](CO)C(=O)N[C@@H](CO)C(=O)N[C@@H](CC(C)C)C(=O)N[C@H](C(=O)O)CSSC[C@@H](C(=O)NCC(=O)NCC(=O)N[C@@H](CO)C(=O)N[C@@H](CCCNC(=N)N)C(=O)N[C@@H](Cc2c[nH]c3ccccc23)C(=O)O)NC(=O)[C@H]([C@@H](C)O)NC(=O)[C@H](Cc2ccccc2)NC(=O)[C@H]([C@@H](C)CC)NC(=O)[C@H](C(C)C)NC(=O)[C@H](C)NC(=O)[C@H](CCCNC(=N)N)NC1=O` [Relaxin 3 (R3), reference compound]: the Ki in assay [1] (mean ± SEM, n in cell, SEM, read-out: RXFP3 Binding pKi (converted)) was 22.9 nM; in assay [3] (mean ± SEM, n in cell, SEM, read-out: RXFP4 Binding pKi (converted)) it was 2.29 nM. For the same compound, the EC50 in assay [2] is 0.832 nM.
